Test results reported in the NIST ThermoML archive (doi:10.1016/j.jct.2011.12.008).
± gives the expanded uncertainty stated by the source.

What was measured:
[1] = xn = mol fraction of the nth substance listed; settings: 101 kPa, Liquid; for viscosity: Capillary tube (Ostwald / Ubbelohde) method; for mass density: Vibrating tube method
[2] = 101.33 kPa, Liquid; for viscosity: Capillary tube (Ostwald / Ubbelohde) method; for mass density: Vibrating tube method

Compound	viscosity ([2]; 293.15 K) [mPa·s]	mass density ([2]; 293.15 K) [kg/m3]	viscosity ([2]; 298.15 K) [mPa·s]	mass density ([2]; 298.15 K) [kg/m3]	viscosity ([2]; 303.15 K) [mPa·s]	mass density ([2]; 303.15 K) [kg/m3]	viscosity ([2]; 308.15 K) [mPa·s]	mass density ([2]; 308.15 K) [kg/m3]	viscosity ([2]; 313.15 K) [mPa·s]	mass density ([2]; 313.15 K) [kg/m3]	viscosity ([2]; 318.15 K) [mPa·s]	mass density ([2]; 318.15 K) [kg/m3]	viscosity ([2]; 323.15 K) [mPa·s]	mass density ([2]; 323.15 K) [kg/m3]	viscosity ([2]; 328.15 K) [mPa·s]	mass density ([2]; 328.15 K) [kg/m3]	viscosity ([2]; 333.15 K) [mPa·s]	mass density ([2]; 333.15 K) [kg/m3]	viscosity ([2]; 338.15 K) [mPa·s]	mass density ([2]; 338.15 K) [kg/m3]	also measured
CC(C)CO [2-methyl-1-propanol] + CCCCCCn1cc[n+](C)c1.F[B-](F)(F)F	–	–	–	–	–	–	–	–	–	–	–	–	–	–	–	–	–	–	–	–	viscosity ([1]; 293.15 K, x2 = 0): 4.085 ± 0.17 mPa·s; mass density ([1]; 293.15 K, x2 = 0): 801.75 ± 0.24 kg/m3; viscosity ([1]; 298.15 K, x2 = 0): 3.45 ± 0.14 mPa·s; mass density ([1]; 298.15 K, x2 = 0): 797.89 ± 0.24 kg/m3; viscosity ([1]; 303.15 K, x2 = 0): 2.877 ± 0.12 mPa·s; mass density ([1]; 303.15 K, x2 = 0): 793.99 ± 0.24 kg/m3; viscosity ([1]; 308.15 K, x2 = 0): 2.385 ± 0.098 mPa·s; mass density ([1]; 308.15 K, x2 = 0): 790.04 ± 0.24 kg/m3; viscosity ([1]; 313.15 K, x2 = 0): 2.091 ± 0.086 mPa·s; mass density ([1]; 313.15 K, x2 = 0): 786.04 ± 0.24 kg/m3; viscosity ([1]; 318.15 K, x2 = 0): 1.85 ± 0.076 mPa·s; mass density ([1]; 318.15 K, x2 = 0): 781.98 ± 0.24 kg/m3; viscosity ([1]; 323.15 K, x2 = 0): 1.576 ± 0.065 mPa·s; mass density ([1]; 323.15 K, x2 = 0): 777.85 ± 0.24 kg/m3; viscosity ([1]; 328.15 K, x2 = 0): 1.297 ± 0.053 mPa·s; mass density ([1]; 328.15 K, x2 = 0): 773.65 ± 0.24 kg/m3; viscosity ([1]; 333.15 K, x2 = 0): 1.124 ± 0.046 mPa·s; mass density ([1]; 333.15 K, x2 = 0): 769.36 ± 0.24 kg/m3; viscosity ([1]; 338.15 K, x2 = 0): 0.9876 ± 0.041 mPa·s; mass density ([1]; 338.15 K, x2 = 0): 764.99 ± 0.24 kg/m3
CC(C)CO [2-methyl-1-propanol]	4.085 ± 0.17	801.75 ± 0.24	3.45 ± 0.14	797.89 ± 0.24	2.877 ± 0.12	793.99 ± 0.24	2.385 ± 0.098	790.04 ± 0.24	2.091 ± 0.086	786.04 ± 0.24	1.85 ± 0.076	781.98 ± 0.24	1.576 ± 0.065	777.85 ± 0.24	1.297 ± 0.053	773.65 ± 0.24	1.124 ± 0.046	769.36 ± 0.24	0.9876 ± 0.041	764.99 ± 0.24	–
CCCCCCn1cc[n+](C)c1.F[B-](F)(F)F [1-hexyl-3-methylimidazolium tetrafluoroborate] + NCCCO	–	–	–	–	–	–	–	–	–	–	–	–	–	–	–	–	–	–	–	–	viscosity ([1]; 293.15 K, x1 = 1): 234.68 ± 11 mPa·s; mass density ([1]; 293.15 K, x1 = 1): 1149.05 ± 1.1 kg/m3; viscosity ([1]; 298.15 K, x1 = 1): 178.92 ± 8.4 mPa·s; mass density ([1]; 298.15 K, x1 = 1): 1145.61 ± 1.1 kg/m3; viscosity ([1]; 303.15 K, x1 = 1): 136.15 ± 6.2 mPa·s; mass density ([1]; 303.15 K, x1 = 1): 1142.3 ± 1.1 kg/m3; viscosity ([1]; 308.15 K, x1 = 1): 106.65 ± 4.7 mPa·s; mass density ([1]; 308.15 K, x1 = 1): 1138.95 ± 1.1 kg/m3; viscosity ([1]; 313.15 K, x1 = 1): 83.13 ± 3.6 mPa·s; mass density ([1]; 313.15 K, x1 = 1): 1135.59 ± 1.1 kg/m3; viscosity ([1]; 318.15 K, x1 = 1): 69.13 ± 2.9 mPa·s; mass density ([1]; 318.15 K, x1 = 1): 1132.22 ± 1.1 kg/m3; viscosity ([1]; 323.15 K, x1 = 1): 56.74 ± 2.4 mPa·s; mass density ([1]; 323.15 K, x1 = 1): 1128.88 ± 1.1 kg/m3; viscosity ([1]; 328.15 K, x1 = 1): 48.36 ± 2 mPa·s; mass density ([1]; 328.15 K, x1 = 1): 1125.5 ± 1.1 kg/m3; viscosity ([1]; 333.15 K, x1 = 1): 43.01 ± 1.8 mPa·s; mass density ([1]; 333.15 K, x1 = 1): 1122.14 ± 1.1 kg/m3; viscosity ([1]; 338.15 K, x1 = 1): 37.15 ± 1.6 mPa·s; mass density ([1]; 338.15 K, x1 = 1): 1118.8 ± 1.1 kg/m3
NCCCO [3-amino-1-propanol]	39.29 ± 1.6	987.55 ± 0.23	30.43 ± 1.3	983.55 ± 0.23	23.87 ± 0.99	979.53 ± 0.23	19.07 ± 0.79	975.51 ± 0.23	15.27 ± 0.63	971.47 ± 0.23	12.35 ± 0.51	967.43 ± 0.23	10.22 ± 0.42	963.37 ± 0.23	8.535 ± 0.35	959.3 ± 0.23	7.123 ± 0.29	955.22 ± 0.23	6.045 ± 0.25	951.14 ± 0.23	–
CCCCCCn1cc[n+](C)c1.F[B-](F)(F)F [1-hexyl-3-methylimidazolium tetrafluoroborate]	234.68 ± 11	1149.05 ± 1.2	178.92 ± 8.4	1145.61 ± 1.1	136.15 ± 6.2	1142.3 ± 1.1	106.65 ± 4.7	1138.95 ± 1.1	83.13 ± 3.6	1135.59 ± 1.1	69.13 ± 2.9	1132.22 ± 1.1	56.74 ± 2.4	1128.88 ± 1.1	48.36 ± 2	1125.5 ± 1.1	43.01 ± 1.8	1122.14 ± 1.1	37.15 ± 1.6	1118.8 ± 1.1	–
